{"source": "patent US20010053796A1", "about": "“Delta-aminolevulinic acid for prevention and treatment of infection microorganisms and parasite” (priority 2000, published 2001)", "key": {"[1]": {"test_system": "White Spot Syndrome Virus (WSSV)", "test": "Prevention for White Spot Syndrome Virus infected shrimp", "format": "in vivo, Penaeus Chinesis", "procedure": "The Shrimps (Penaeus Chinesis, size 6˜8 cm) were immersed in 0.01˜10 ppm of EnviroVax for 1.5 hr during 3 days and injected viral homogenate at 4 day.\nThe Viral homogenate was prepared as follows:\nHomogenize 1 g of tissue (gill and stomach) in 1 ml PBS.\nCentrifuge at 2,000 rpm for 10 min. at 4° C.\nFilter the supernatant by using the 0.45 μm membrane filter.\nDilute the filtrate (1 part of filtrate to 10 parts of PBS)."}, "Bastardhalibut": {"test_system": "Bastardhalibut", "test": "Breeding before Scutica artificial infection (mortality during cultivation)", "details": "oral (100 ppm per feed 1 kg), 1˜3 weeks", "description": "20 flatfish of about 25 g were set into 2 groups and 1 control group and cultivated in circulatory filtering system. In group 1, they were cultivated for 1˜3 weeks, maintaining the concentration of δ-aminolevulinic acid at 0.01˜50 ppm by administering δ-aminolevulinic acid once every 3 days to the cultivating water. In group 2, they were cultivated for 1˜3 weeks by administering δ-aminolevulinic acid solution, which was nebulized at the concentration of 0.1˜100 ppm and for artificial assorted feed (EP, fish body weight 3%: 15 g) 1 kg, and dried. In group 1 and the non-treated group, artificial assorted feed on the market with the same amount of feed of group 2 was used without δ-aminolevulinic acid treatment. […] The water temperature was maintained at 20° C. (±2° C.) throughout the experiment."}, "[2]": {"test_system": "CHSE (Chinook Salmon Embryo)", "details": "24 h", "protocol": "δ-aminolevulinic acid feed were prepared to 1.0 M concentration (0. 167 g/mL HBSS) and diluted by 10-fold dilution method. 100 μl of each fish cell line suspension of 2.5×10^5 were placed into 96-well microplate and then, 100 μl of each of the resulting diluted solution, 4 well/dilution unit, were added respectively. Fish cell lines, which were used for this cell toxicity experiment of δ-aminolevulinic acid, were RTG-2 (Rainbow Trout Gonad), FHM (Fathead Minnow Epithelioma) and CHSE (Chinook Salmon Embryo) lotted out from Dr. M. Yoshimizu of the Department of Fisheries, Hokkaido University, Japan. For these experimental cells, 100 U/mL penicillin (Sigma), 100 μl/mL streptomycin (Sigma) and MEM media supplemented with 5% fetal bovine serum (FBS, Gibco) for cell culture were used. Cultured cells in 96-well microplate was incubated for 3 hrs at 15° C. and δ-aminolevulinic acid were added to wells at amounts of 100 μl of 0, 1.0, 10, 50 and 100 mM and incubated for 24 hrs at 18° C. As a control group, instead of δ-aminolevulinic acid, HBSS was added at the same amount. […] Absorbance was measured with an ELISA reader at 570 μl."}, "Staphylococcus sp. [3]": {"test_system": "Staphylococcus sp.", "test": "Prevention effect for artificial infection (abdominal injection of bacteria)", "format": "in vivo, Sebastes schlegeli", "details": "for Mortality during Cultivation: dead of 20 fish", "procedure": "The water temperature was maintained at 20° C. (±2° C. ) throughout the experiment. […]\nBastardhalibut and Sebastes schlegeli were infected by Staphylococcus sp. by abdominal injection with the same method of fish breeding δ-aminolevulinic acid treatment and artificial infection carried out in Experiment 1 and 2. Each experimental fish was moved to fish tanks for monitoring and monitored for mortality according to infection for 2 weeks."}, "Pseudomonas sp.": {"test_system": "Pseudomonas sp.", "test": "Treatment effect of infected fry by digestion in breeding water", "format": "in vivo, Bastardhalibut", "details": "50 fish", "procedure": "(§1) To be used as experimental fish in this example, fry of Bastardhalibut and Sebastes schlegeli (mean body weight 2 g), 50 per each breeding tank, were preliminary-bred for 1 week and stabilized. […] The artificial infection methods were carried out by the digestion method. Pathogenic organisms were applied into fish tanks and digested in seawater, wherein the concentration of organisms has adjusted to 10^4 CFU/mL for an hour, and infected. Treatment conditions are as follows. After artificial infection. Infected fishes were moved to fish tanks and kept in the infection period for 3 days. On the fourth day of infection, 0.1, 1.0, 5 and 10 ppm δ-aminolevulinic acid were introduced to use as breeding water. Fish was bred in aerobic condition for 1˜24 hours without exchanging water and then, bred for 2 weeks after exchanging with clean seawater. Then, they were monitored to check for the mortality of fish according to infection. In the control groups, after each bacteria were identically introduced through the digestion method, mortality of Bastardhalibut and Sebastes schlegeli according to bacteria infection was identified while breeding with non-treated condition of δ-aminolevulinic acid. As a result of this experiment, δ-aminolevulinic acid-treated groups have shown high viability in both Bastardhalibut (Table 12˜Table 15) and Sebastes schlegeli (Table 16˜Table 19)."}, "Vibrio anguillarum": {"test_system": "Vibrio anguillarum", "test": "Treatment effect of infected fry by digestion in breeding water", "format": "in vivo, Bastardhalibut", "details": "50 fish", "procedure": "as §1"}, "Edwardsiella tarda": {"test_system": "Edwardsiella tarda", "test": "Treatment effect of infected fry by digestion in breeding water", "format": "in vivo, Bastardhalibut", "details": "50 fish", "procedure": "as §1"}, "Staphylococcus epidermis": {"test_system": "Staphylococcus epidermis", "test": "Treatment effect of infected fry by digestion in breeding water", "format": "in vivo, Bastardhalibut", "details": "50 fish", "procedure": "as §1"}, "Staphylococcus sp. [4]": {"test_system": "Staphylococcus sp.", "test": "Treatment effect of infected fry by digestion in breeding water", "format": "in vivo, Bastardhalibut", "details": "50 fish", "procedure": "as §1"}, "Streptococcus sp.": {"test_system": "Streptococcus sp.", "test": "Treatment effect of infected fry by digestion in breeding water", "format": "in vivo, Bastardhalibut", "details": "50 fish", "procedure": "as §1"}, "[5]": {"details": "digestion 0.1 ppm from 4th day of infection, Bastard halibut fry"}, "[6]": {"details": "digestion 1.0 ppm from 4th day of infection, Bastardhalibut fry"}, "[7]": {"details": "digestion 5.0 ppm from 4th day of infection, in Bastard halibut"}, "[8]": {"details": "digestion 10 ppm from 4th day of infection"}, "[9]": {"details": "digestion 5.0 ppm from 4th day of infection"}, "[10]": {"details": "digestion 10 ppm from 4th day of infection, Bastardhalibut fry"}}, "data": [{"smiles": "NCC(=O)CCC(=O)O", "note": "[δ-aminolevulinic acid]", "values": [{"measurement": "Cumulative mortality", "setting": "[1]; 0.01 ppm, after injection for 3 weeks", "result": 100, "unit": "%"}, {"measurement": "Mortality after injection for 3 weeks", "setting": "[1]; 0.01 ppm, day 1, 50 shrimp", "result": 0}, {"measurement": "Mortality after injection for 3 weeks", "setting": "[1]; 0.01 ppm, day 2, 50 shrimp", "result": 0}, {"measurement": "Mortality after injection for 3 weeks", "setting": "[1]; 0.01 ppm, day 3, 50 shrimp", "result": 15}, {"measurement": "Mortality after injection for 3 weeks", "setting": "[1]; 0.01 ppm, day 4, 50 shrimp", "result": 20}, {"measurement": "Mortality after injection for 3 weeks", "setting": "[1]; 0.01 ppm, day 5, 50 shrimp", "result": 12}, {"measurement": "Mortality after injection for 3 weeks", "setting": "[1]; 0.01 ppm, day 6, 50 shrimp", "result": 3}, {"measurement": "Cumulative mortality", "setting": "[1]; 0.1 ppm, after injection for 3 weeks", "result": 12, "unit": "%"}, {"measurement": "Mortality after injection for 3 weeks", "setting": "[1]; 0.1 ppm, day 1, 50 shrimp", "result": 0}, {"measurement": "Mortality after injection for 3 weeks", "setting": "[1]; 0.1 ppm, day 2, 50 shrimp", "result": 0}, {"measurement": "Mortality after injection for 3 weeks", "setting": "[1]; 0.1 ppm, day 3, 50 shrimp", "result": 2}, {"measurement": "Mortality after injection for 3 weeks", "setting": "[1]; 0.1 ppm, day 4, 50 shrimp", "result": 3}, {"measurement": "Mortality after injection for 3 weeks", "setting": "[1]; 0.1 ppm, day 5, 50 shrimp", "result": 1}, {"measurement": "Mortality after injection for 3 weeks", "setting": "[1]; 0.1 ppm, day 6, 50 shrimp", "result": 0}, {"measurement": "Mortality after injection for 3 weeks", "setting": "[1]; 0.1 ppm, day 7, 50 shrimp", "result": 0}, {"measurement": "Mortality after injection for 3 weeks", "setting": "[1]; 0.1 ppm, day 21, 50 shrimp", "result": 0}, {"measurement": "Cumulative mortality", "setting": "[1]; 1.0 ppm, after injection for 3 weeks", "result": 8, "unit": "%"}, {"measurement": "Mortality after injection for 3 weeks", "setting": "[1]; 1.0 ppm, day 1, 50 shrimp", "result": 0}, {"measurement": "Mortality after injection for 3 weeks", "setting": "[1]; 1.0 ppm, day 2, 50 shrimp", "result": 1}, {"measurement": "Mortality after injection for 3 weeks", "setting": "[1]; 1.0 ppm, day 3, 50 shrimp", "result": 2}, {"measurement": "Mortality after injection for 3 weeks", "setting": "[1]; 1.0 ppm, day 4, 50 shrimp", "result": 1}, {"measurement": "Mortality after injection for 3 weeks", "setting": "[1]; 1.0 ppm, day 5, 50 shrimp", "result": 0}, {"measurement": "Mortality after injection for 3 weeks", "setting": "[1]; 1.0 ppm, day 6, 50 shrimp", "result": 0}, {"measurement": "Mortality after injection for 3 weeks", "setting": "[1]; 1.0 ppm, day 7, 50 shrimp", "result": 0}, {"measurement": "Mortality after injection for 3 weeks", "setting": "[1]; 1.0 ppm, day 21, 50 shrimp", "result": 0}, {"measurement": "Cumulative mortality", "setting": "[1]; 10 ppm, after injection for 3 weeks", "result": 6, "unit": "%"}, {"measurement": "Mortality after injection for 3 weeks", "setting": "[1]; 10 ppm, day 1, 50 shrimp", "result": 0}, {"measurement": "Mortality after injection for 3 weeks", "setting": "[1]; 10 ppm, day 2, 50 shrimp", "result": 0}, {"measurement": "Mortality after injection for 3 weeks", "setting": "[1]; 10 ppm, day 3, 50 shrimp", "result": 3}, {"measurement": "Mortality after injection for 3 weeks", "setting": "[1]; 10 ppm, day 4, 50 shrimp", "result": 0}, {"measurement": "Mortality after injection for 3 weeks", "setting": "[1]; 10 ppm, day 5, 50 shrimp", "result": 0}, {"measurement": "Mortality after injection for 3 weeks", "setting": "[1]; 10 ppm, day 6, 50 shrimp", "result": 0}, {"measurement": "Mortality after injection for 3 weeks", "setting": "[1]; 10 ppm, day 7, 50 shrimp", "result": 0}, {"measurement": "Mortality after injection for 3 weeks", "setting": "[1]; 10 ppm, day 21, 50 shrimp", "result": 0}, {"measurement": "Cumulative mortality", "setting": "[1]; immersion 1.0 ppm, 1.5 hr during 3 days before virus injection, 3 weeks", "result": 8, "unit": "%"}, {"measurement": "Cumulative mortality", "setting": "[1]; immersion 10 ppm, 1.5 hr during 3 days before virus injection, 3 weeks", "result": 6, "unit": "%"}, {"measurement": "Viability", "setting": "Bastardhalibut", "result": 100, "unit": "%"}, {"measurement": "Mortality during Cultivation", "setting": "Bastardhalibut; dead of 20 fish", "result": 0}, {"measurement": "safe range of toxicity", "setting": "[2]", "result": "below 10 mM"}, {"measurement": "Viability", "setting": "Staphylococcus sp. [3]; orally, 0.1 ppm in feed", "result": 50, "unit": "%"}, {"measurement": "Mortality during Cultivation", "setting": "Staphylococcus sp. [3]; orally, 0.1 ppm in feed", "result": 10}, {"measurement": "Viability", "setting": "Staphylococcus sp. [3]; orally, 1.0 ppm in feed", "result": 55, "unit": "%"}, {"measurement": "Mortality during Cultivation", "setting": "Staphylococcus sp. [3]; orally, 1.0 ppm in feed", "result": 9}, {"measurement": "Viability", "setting": "Staphylococcus sp. [3]; orally, 10 ppm in feed", "result": 90, "unit": "%"}, {"measurement": "Mortality during Cultivation", "setting": "Staphylococcus sp. [3]; orally, 10 ppm in feed", "result": 2}, {"measurement": "Viability", "setting": "Staphylococcus sp. [3]; orally, 100 ppm in feed", "result": 90, "unit": "%"}, {"measurement": "Mortality during Cultivation", "setting": "Staphylococcus sp. [3]; orally, 100 ppm in feed", "result": 2}, {"measurement": "Viability", "setting": "Staphylococcus sp. [3]; to fish tanks, 0.01 ppm", "result": 60, "unit": "%"}, {"measurement": "Mortality during Cultivation", "setting": "Staphylococcus sp. [3]; to fish tanks, 0.01 ppm", "result": 8}, {"measurement": "Viability", "setting": "Staphylococcus sp. [3]; to fish tanks, 0.1 ppm", "result": 65, "unit": "%"}, {"measurement": "Mortality during Cultivation", "setting": "Staphylococcus sp. [3]; to fish tanks, 0.1 ppm", "result": 7}, {"measurement": "Viability", "setting": "Staphylococcus sp. [3]; to fish tanks, 1.0 ppm", "result": 95, "unit": "%"}, {"measurement": "Mortality during Cultivation", "setting": "Staphylococcus sp. [3]; to fish tanks, 1.0 ppm", "result": 1}, {"measurement": "Viability", "setting": "Staphylococcus sp. [3]; to fish tanks, 10 ppm", "result": 90, "unit": "%"}, {"measurement": "Mortality during Cultivation", "setting": "Staphylococcus sp. [3]; to fish tanks, 10 ppm", "result": 2}, {"measurement": "Viability", "setting": "Pseudomonas sp.; [5]", "result": 50, "unit": "%"}, {"measurement": "Viability", "setting": "Pseudomonas sp.; [6]", "result": 70, "unit": "%"}, {"measurement": "Viability", "setting": "Pseudomonas sp.; [7]", "result": 80, "unit": "%"}, {"measurement": "Viability", "setting": "Pseudomonas sp.; [8]", "result": 84, "unit": "%"}, {"measurement": "Viability", "setting": "Vibrio anguillarum; [5]", "result": 56, "unit": "%"}, {"measurement": "Viability", "setting": "Vibrio anguillarum; [6]", "result": 66, "unit": "%"}, {"measurement": "Viability", "setting": "Vibrio anguillarum; [9]", "result": 84, "unit": "%"}, {"measurement": "Viability", "setting": "Vibrio anguillarum; [10]", "result": 80, "unit": "%"}, {"measurement": "Viability", "setting": "Edwardsiella tarda; [5]", "result": 54, "unit": "%"}, {"measurement": "Viability", "setting": "Edwardsiella tarda; [6]", "result": 76, "unit": "%"}, {"measurement": "Viability", "setting": "Edwardsiella tarda; [7]", "result": 86, "unit": "%"}, {"measurement": "Viability", "setting": "Edwardsiella tarda; [10]", "result": 84, "unit": "%"}, {"measurement": "Viability", "setting": "Staphylococcus epidermis; [5]", "result": 42, "unit": "%"}, {"measurement": "Viability", "setting": "Staphylococcus epidermis; [6]", "result": 66, "unit": "%"}, {"measurement": "Viability", "setting": "Staphylococcus epidermis; [7]", "result": 80, "unit": "%"}, {"measurement": "Viability", "setting": "Staphylococcus epidermis; [8]", "result": 84, "unit": "%"}, {"measurement": "Viability", "setting": "Staphylococcus sp. [4]; [5]", "result": 54, "unit": "%"}, {"measurement": "Viability", "setting": "Staphylococcus sp. [4]; [6]", "result": 66, "unit": "%"}, {"measurement": "Viability", "setting": "Staphylococcus sp. [4]; [9]", "result": 84, "unit": "%"}, {"measurement": "Viability", "setting": "Staphylococcus sp. [4]; [10]", "result": 84, "unit": "%"}, {"measurement": "Viability", "setting": "Streptococcus sp.; [5]", "result": 46, "unit": "%"}, {"measurement": "Viability", "setting": "Streptococcus sp.; [6]", "result": 64, "unit": "%"}, {"measurement": "Viability", "setting": "Streptococcus sp.; [7]", "result": 84, "unit": "%"}, {"measurement": "Viability", "setting": "Streptococcus sp.; [10]", "result": 90, "unit": "%"}]}]}
